Measurements: patent US10322111B2, “Chemokine receptor binding heterocyclic compounds with enhanced efficacy” (Genzyme Corporation, priority 2001, dated 2019)
Like-named read-outs stand apart in the source and are kept apart here.

Columns and labels:
[1] = system: CFU-GM progenitor cells; conditions: 80 μg/kg s.c.; for % CHG, CFU-GM, agar culture / mean fold change compared to T 0, CFU-GM, agar culture, MEAN: all five donors
[2] = system: CFU-GM, BFU-E and CFU-GEMM progenitor cells; conditions: 80 μg/kg s.c.

c1cc(CN2CCCNCCNCCCNCC2)ccc1CN1CCCNCCNCCCNCC1 [AMD3100, 1,1′-[1,4-phenylene-bis(methylene)]-bis-1,4,8,11-tetraazacyclotetradecane]
Absolute # of Progenitors per ML, CFU-GM, AGAR Culture ([1]; P1, T = 1 h after injection): 710 per ML | fold change from T=0, CFU-GM, agar culture ([1]; P1, T = 1 h after injection): 3.05 fold | Absolute # of Progenitors per ML, CFU-GM, AGAR Culture ([1]; P1, T = 3 h after injection): 2070 per ML | fold change from T=0, CFU-GM, agar culture ([1]; P1, T = 3 h after injection): 8.88 fold | Absolute # of Progenitors per ML, CFU-GM, AGAR Culture ([1]; P1, T = 6 h after injection): 4142 per ML | fold change from T=0, CFU-GM, agar culture ([1]; P1, T = 6 h after injection): 17.77 fold | Absolute # of Progenitors per ML, CFU-GM, AGAR Culture ([1]; P2, T = 1 h after injection): 376 per ML | fold change from T=0, CFU-GM, agar culture ([1]; P2, T = 1 h after injection): 3.74 fold | Absolute # of Progenitors per ML, CFU-GM, AGAR Culture ([1]; P2, T = 3 h after injection): 953 per ML | fold change from T=0, CFU-GM, agar culture ([1]; P2, T = 3 h after injection): 9.49 fold | Absolute # of Progenitors per ML, CFU-GM, AGAR Culture ([1]; P2, T = 6 h after injection): 2409 per ML | fold change from T=0, CFU-GM, agar culture ([1]; P2, T = 6 h after injection): 24.01 fold | Absolute # of Progenitors per ML, CFU-GM, AGAR Culture ([1]; P2, T = 9 h after injection): 1032 per ML | fold change from T=0, CFU-GM, agar culture ([1]; P2, T = 9 h after injection): 10.28 fold | Absolute # of Progenitors per ML, CFU-GM, AGAR Culture ([1]; P2, T = 24 h after injection): 371 per ML | fold change from T=0, CFU-GM, agar culture ([1]; P2, T = 24 h after injection): 3.69 fold | Absolute # of Progenitors per ML, CFU-GM, AGAR Culture ([1]; P3, T = 1 h after injection): 234 per ML | fold change from T=0, CFU-GM, agar culture ([1]; P3, T = 1 h after injection): 1.67 fold | Absolute # of Progenitors per ML, CFU-GM, AGAR Culture ([1]; P3, T = 3 h after injection): 1049 per ML | fold change from T=0, CFU-GM, agar culture ([1]; P3, T = 3 h after injection): 7.47 fold | Absolute # of Progenitors per ML, CFU-GM, AGAR Culture ([1]; P3, T = 6 h after injection): 1972 per ML | fold change from T=0, CFU-GM, agar culture ([1]; P3, T = 6 h after injection): 14.04 fold | Absolute # of Progenitors per ML, CFU-GM, AGAR Culture ([1]; P3, T = 9 h after injection): 1085 per ML | fold change from T=0, CFU-GM, agar culture ([1]; P3, T = 9 h after injection): 7.72 fold | Absolute # of Progenitors per ML, CFU-GM, AGAR Culture ([1]; P3, T = 24 h after injection): 159 per ML | fold change from T=0, CFU-GM, agar culture ([1]; P3, T = 24 h after injection): 1.13 fold | Absolute # of Progenitors per ML, CFU-GM, AGAR Culture ([1]; P4, T = 1 h after injection): 336 per ML | fold change from T=0, CFU-GM, agar culture ([1]; P4, T = 1 h after injection): 2.71 fold | Absolute # of Progenitors per ML, CFU-GM, AGAR Culture ([1]; P4, T = 3 h after injection): 1299 per ML | fold change from T=0, CFU-GM, agar culture ([1]; P4, T = 3 h after injection): 10.46 fold | Absolute # of Progenitors per ML, CFU-GM, AGAR Culture ([1]; P4, T = 6 h after injection): 1623 per ML | fold change from T=0, CFU-GM, agar culture ([1]; P4, T = 6 h after injection): 13.07 fold | Absolute # of Progenitors per ML, CFU-GM, AGAR Culture ([1]; P4, T = 9 h after injection): 1268 per ML | fold change from T=0, CFU-GM, agar culture ([1]; P4, T = 9 h after injection): 10.22 fold | Absolute # of Progenitors per ML, CFU-GM, AGAR Culture ([1]; P4, T = 24 h after injection): 162 per ML | fold change from T=0, CFU-GM, agar culture ([1]; P4, T = 24 h after injection): 1.30 fold | Absolute # of Progenitors per ML, CFU-GM, AGAR Culture ([1]; P5, T = 1 h after injection): 298 per ML | Absolute # of Progenitors per ML, CFU-GM, AGAR Culture ([1]; P5, T = 3 h after injection): 664 per ML | Absolute # of Progenitors per ML, CFU-GM, AGAR Culture ([1]; P5, T = 6 h after injection): 2153 per ML | Absolute # of Progenitors per ML, CFU-GM, AGAR Culture ([1]; P5, T = 9 h after injection): 1326 per ML | Absolute # of Progenitors per ML, CFU-GM, AGAR Culture ([1]; P5, T = 24 h after injection): 229 per ML | fold change from T=0, CFU-GM, agar culture ([1]; P6, T = 1 h after injection): 2.87 fold | fold change from T=0, CFU-GM, agar culture ([1]; P6, T = 3 h after injection): 6.40 fold | fold change from T=0, CFU-GM, agar culture ([1]; P6, T = 6 h after injection): 20.75 fold | fold change from T=0, CFU-GM, agar culture ([1]; P6, T = 9 h after injection): 12.78 fold | fold change from T=0, CFU-GM, agar culture ([1]; P6, T = 24 h after injection): 2.20 fold | % CHG, CFU-GM, agar culture ([1]; T = 1 h after injection): 180.8% | mean fold change compared to T 0, CFU-GM, agar culture, MEAN ([1]; T = 1 h after injection): 2.81 fold | % CHG, CFU-GM, agar culture ([1]; T = 3 h after injection): 754.1% | mean fold change compared to T 0, CFU-GM, agar culture, MEAN ([1]; T = 3 h after injection): 8.54 fold | % CHG, CFU-GM, agar culture ([1]; T = 6 h after injection): 1692.8% | mean fold change compared to T 0, CFU-GM, agar culture, MEAN ([1]; T = 6 h after injection): 17.93 fold | % CHG, CFU-GM, agar culture ([1]; T = 9 h after injection): 924.9% | mean fold change compared to T 0, CFU-GM, agar culture, MEAN ([1]; T = 9 h after injection): 10.25 fold | % CHG, CFU-GM, agar culture ([1]; T = 24 h after injection): 108.3% | mean fold change compared to T 0, CFU-GM, agar culture, MEAN ([1]; T = 24 h after injection): 2.08 fold | Cycling Status of Progenitors, BFU-E ([2]; P1, T = 1 h after injection): 0% | Cycling Status of Progenitors, CFU-GEMM ([2]; P1, T = 1 h after injection): 0% | Cycling Status of Progenitors, CFU-GM ([2]; P1, T = 1 h after injection): 1% | Cycling Status of Progenitors, CFU-GM, AGAR Culture ([2]; P1, T = 1 h after injection): 0% | Cycling Status of Progenitors, BFU-E ([2]; P1, T = 3 h after injection): 13% | Cycling Status of Progenitors, CFU-GEMM ([2]; P1, T = 3 h after injection): 7% | Cycling Status of Progenitors, CFU-GM ([2]; P1, T = 3 h after injection): 1% | Cycling Status of Progenitors, CFU-GM, AGAR Culture ([2]; P1, T = 3 h after injection): 0% | Cycling Status of Progenitors, BFU-E ([2]; P1, T = 6 h after injection): 0% | Cycling Status of Progenitors, CFU-GEMM ([2]; P1, T = 6 h after injection): 0% | Cycling Status of Progenitors, CFU-GM ([2]; P1, T = 6 h after injection): 0% | Cycling Status of Progenitors, CFU-GM, AGAR Culture ([2]; P1, T = 6 h after injection): 0% | Cycling Status of Progenitors, BFU-E ([2]; P1, T = 9 h after injection): 11% | Cycling Status of Progenitors, CFU-GEMM ([2]; P1, T = 9 h after injection): 0% | Cycling Status of Progenitors, CFU-GM ([2]; P1, T = 9 h after injection): 2% | Cycling Status of Progenitors, BFU-E ([2]; P1, T = 24 h after injection): 0% | Cycling Status of Progenitors, CFU-GEMM ([2]; P1, T = 24 h after injection): 0% | Cycling Status of Progenitors, CFU-GM ([2]; P1, T = 24 h after injection): 0% | Cycling Status of Progenitors, BFU-E ([2]; P2, T = 1 h after injection): 3% | Cycling Status of Progenitors, CFU-GEMM ([2]; P2, T = 1 h after injection): 6% | Cycling Status of Progenitors, CFU-GM ([2]; P2, T = 1 h after injection): 0% | Cycling Status of Progenitors, CFU-GM, AGAR Culture ([2]; P2, T = 1 h after injection): 0% | Cycling Status of Progenitors, BFU-E ([2]; P2, T = 3 h after injection): 0% | Cycling Status of Progenitors, CFU-GEMM ([2]; P2, T = 3 h after injection): 0% | Cycling Status of Progenitors, CFU-GM ([2]; P2, T = 3 h after injection): 2% | Cycling Status of Progenitors, CFU-GM, AGAR Culture ([2]; P2, T = 3 h after injection): 1% | Cycling Status of Progenitors, BFU-E ([2]; P2, T = 6 h after injection): 0% | Cycling Status of Progenitors, CFU-GEMM ([2]; P2, T = 6 h after injection): 0% | Cycling Status of Progenitors, CFU-GM ([2]; P2, T = 6 h after injection): 0% | Cycling Status of Progenitors, CFU-GM, AGAR Culture ([2]; P2, T = 6 h after injection): 3% | Cycling Status of Progenitors, BFU-E ([2]; P2, T = 9 h after injection): 0% | Cycling Status of Progenitors, CFU-GEMM ([2]; P2, T = 9 h after injection): 4% | Cycling Status of Progenitors, CFU-GM ([2]; P2, T = 9 h after injection): 0% | Cycling Status of Progenitors, CFU-GM, AGAR Culture ([2]; P2, T = 9 h after injection): 0%
